A short description of series [1]: H+/Na+ transport assay of bead-derived peptides (one-point).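 Also: relative to parent gramicidin A activity set to 1.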 It is filed as biochemical. Also on record: key: relative activity; mean of two control wells = 1.00. As to conditions: bead-derived peptide solution, EYPC/EYPG LUVs. In outline: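 One-point screen: peptide + pyranine-loaded LUVs, 30 min RT with vortexing, 96-well. Read-out is fluorescence intensity scaled as 100 × (Ix – I0)/(Imax – I0). Imax from Triton X-100, I0 from untreated vesicles, and the mean of the two control wells is set to 1.00.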

Series [2] relates to P388 mouse leukemia cells. The following applies: 92 h. Summed up: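 P388 cells at 1 × 10^4 cells/mL (final) were exposed to library peptides (stocks diluted 250-fold in RPMI1640/10% FBS) for 92 h at 37 °C, 5% CO2. Viable cells were counted by WST-1/1-methoxy PMS (4 h), absorbance 415 nm, and expressed as cell viability (%).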
The test system of series [3] is Streptococcus pyogenes SSI-9. Kind of series: Antibacterial activity assay of bead-derived peptides (three concentrations). It is filed as cell-based. Also on record: key: +++: inhibition by the 640-fold diluted peptide solution; ++: inhibition by the 160-fold diluted solution; +: inhibition by the 40-fold diluted solution; -: no inhibition. The following applies: S. pyogenes, bead-derived peptide solution, three concentrations. In outline: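 Library peptide stock applied undiluted, 4-fold and 16-fold diluted in DMSO to S. pyogenes SSI-9 (2 × 10^5 CFU) in cation-adjusted Mueller Hinton broth with 5% laked horse blood. After 18 h at 37 °C, growth judged by visible cell precipitation.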

Where a SMILES comes first, the peptide text is derived from it. [ ]: non-standard residue; d: D form. The star is where a group is joined. NHCH2CH2OH = OCCN*; For = O=C*

As for `CNC(=O)C[C@@H](NC(=O)[C@@H](NC(=O)[C@@H](CC(C)C)NC(=O)[C@H](C)NC(=O)[C@H](NC(=O)[C@H](C)NC(=O)CNC(=O)[C@@H](NC=O)C(C)C)C(C)C)C(C)C)C(=O)N[C@@H](Cc1c[nH]c2ccccc12)C(=O)N[C@@H](C(=O)N[C@@H](Cc1c[nH]c2ccccc12)C(=O)N[C@@H](C(=O)N[C@@H](Cc1c[nH]c2ccccc12)C(=O)N[C@H](CC(C)C)C(=O)N[C@@H](Cc1c[nH]c2ccccc12)C(=O)NCCO)C(C)C)C(C)C` [compound 11226] (For-VGA[dV]A[dL]V[dD](NHMe)W[dV]W[dV]W[dL]W-NHCH2CH2OH), the “H+/Na+ transport activity normalized against the value of 1 (1.00)” value (shortened to “H+/Na+ transport activity normalized”) in series [1] was 1.04. The same compound gave a cell viability/% in series [2] of 76.8%. For the same compound, the antibacterial activity entry in series [3] is listed as “-”.
On the same counts, the results for `CNC(=O)C[C@@H](NC(=O)[C@@H](NC(=O)[C@@H](CC(C)C)NC(=O)[C@H](C)NC(=O)[C@@H](CC(C)C)NC(=O)[C@H](C)NC(=O)CNC(=O)[C@@H](NC=O)C(C)C)C(C)C)C(=O)N[C@@H](Cc1c[nH]c2ccccc12)C(=O)N[C@@H](C(=O)N[C@@H](Cc1c[nH]c2ccccc12)C(=O)N[C@@H](C(=O)N[C@@H](Cc1c[nH]c2ccccc12)C(=O)N[C@H](CC(C)C)C(=O)N[C@@H](Cc1c[nH]c2ccccc12)C(=O)NCCO)C(C)C)C(C)C` [compound 11228] (For-VGA[dL]A[dL]V[dD](NHMe)W[dV]W[dV]W[dL]W-NHCH2CH2OH) are 1.27, 76.4% and “-”.
Regarding `CC(C)C[C@@H](NC(=O)[C@H](Cc1c[nH]c2ccccc12)NC(=O)[C@H](NC(=O)[C@H](Cc1c[nH]c2ccccc12)NC(=O)[C@@H](CC(C)C)NC(=O)[C@@H](NC(=O)[C@H](NC(=O)[C@H](C)NC(=O)[C@H](NC(=O)[C@H](C)NC(=O)CNC(=O)[C@@H](NC=O)C(C)C)[C@H](C)O)C(C)C)C(C)C)C(C)C)C(=O)N[C@@H](Cc1c[nH]c2ccccc12)C(=O)N[C@@H](C(=O)N[C@@H](Cc1c[nH]c2ccccc12)C(=O)NCCO)C(C)C` [compound 11238] (For-VGA[dT]A[dV]V[dL]W[dV]W[dL]W[dV]W-NHCH2CH2OH), the “H+/Na+ transport activity normalized” value in series [1] is given as 1.03. Moreover, the cell viability/% in series [2] came to 64.7%. Besides, the antibacterial activity entry in series [3] is recorded as “-”.
`CC(C)C[C@@H](NC(=O)[C@H](C)NC(=O)[C@H](NC(=O)[C@H](C)NC(=O)CNC(=O)[C@@H](NC=O)C(C)C)C(C)C)C(=O)N[C@H](C(=O)N[C@H](CC(C)C)C(=O)N[C@@H](Cc1c[nH]c2ccccc12)C(=O)N[C@H](CC(C)C)C(=O)N[C@@H](Cc1c[nH]c2ccccc12)C(=O)N[C@@H](C(=O)N[C@@H](Cc1c[nH]c2ccccc12)C(=O)N[C@@H](C(=O)N[C@@H](Cc1c[nH]c2ccccc12)C(=O)NCCO)C(C)C)C(C)C)C(C)C` [compound 11280] (For-VGA[dV]A[dL]V[dL]W[dL]W[dV]W[dV]W-NHCH2CH2OH): the “H+/Na+ transport activity normalized” value in series [1] was 1.04. This compound had a cell viability/% in series [2] of 9.9%. Besides, the antibacterial activity result in series [3] was “-”.
On the same counts, the results for `CC(C)C[C@@H](NC(=O)[C@H](C)NC(=O)CNC(=O)[C@@H](NC=O)C(C)C)C(=O)N[C@@H](C)C(=O)N[C@H](CC(C)C)C(=O)N[C@H](C(=O)N[C@@H](C(=O)N[C@@H](Cc1c[nH]c2ccccc12)C(=O)N[C@H](CC(C)C)C(=O)N[C@@H](Cc1c[nH]c2ccccc12)C(=O)N[C@H](CC(C)C)C(=O)N[C@@H](Cc1c[nH]c2ccccc12)C(=O)N[C@@H](C(=O)N[C@@H](Cc1c[nH]c2ccccc12)C(=O)NCCO)C(C)C)[C@H](C)O)C(C)C` [compound 11295] (For-VGA[dL]A[dL]V[dT]W[dL]W[dL]W[dV]W-NHCH2CH2OH) are 1.12, 78.1% and “-”.
On the same counts, the results for `CC(C)C[C@@H](NC(=O)[C@H](C)NC(=O)CNC(=O)[C@@H](NC=O)C(C)C)C(=O)N[C@@H](C)C(=O)N[C@@H](C(=O)N[C@H](C(=O)N[C@H](CC(C)C)C(=O)N[C@@H](Cc1c[nH]c2ccccc12)C(=O)N[C@H](CC(C)C)C(=O)N[C@@H](Cc1c[nH]c2ccccc12)C(=O)N[C@H](CC(C)C)C(=O)N[C@@H](Cc1c[nH]c2ccccc12)C(=O)N[C@@H](C(=O)N[C@@H](Cc1c[nH]c2ccccc12)C(=O)NCCO)C(C)C)C(C)C)[C@H](C)O` [compound 11302] (For-VGA[dL]A[dT]V[dL]W[dL]W[dL]W[dV]W-NHCH2CH2OH) are 1.05, 49.1% and “-”.
As to `CC(C)C[C@@H](NC(=O)[C@H](Cc1c[nH]c2ccccc12)NC(=O)[C@@H](CC(C)C)NC(=O)[C@@H](NC(=O)[C@H](NC(=O)[C@H](C)NC(=O)[C@H](NC(=O)[C@H](C)NC(=O)CNC(=O)[C@@H](NC=O)C(C)C)[C@H](C)O)C(C)C)C(C)C)C(=O)N[C@@H](Cc1c[nH]c2ccccc12)C(=O)N[C@H](CC(C)C)C(=O)N[C@@H](Cc1c[nH]c2ccccc12)C(=O)N[C@@H](C(=O)N[C@@H](Cc1c[nH]c2ccccc12)C(=O)NCCO)C(C)C` [compound 11317] (For-VGA[dT]A[dV]V[dL]W[dL]W[dL]W[dV]W-NHCH2CH2OH), the “H+/Na+ transport activity normalized” value in series [1] was determined as 1.02. In series [2], this compound had a cell viability/% of 42.1%. Also, the antibacterial activity result in series [3] is “-”.
On the same counts, the results for `CC(C)C[C@@H](NC(=O)[C@H](C)NC(=O)CNC(=O)[C@@H](NC=O)C(C)C)C(=O)N[C@@H](C)C(=O)N[C@H](CC(C)C)C(=O)N[C@H](C(=O)N[C@H](CC(C)C)C(=O)N[C@@H](Cc1c[nH]c2ccccc12)C(=O)N[C@@H](C(=O)N[C@@H](Cc1c[nH]c2ccccc12)C(=O)N[C@@H](C(=O)N[C@@H](Cc1c[nH]c2ccccc12)C(=O)N[C@@H](C(=O)N[C@@H](Cc1c[nH]c2ccccc12)C(=O)NCCO)C(C)C)C(C)C)C(C)C)C(C)C` [compound 11323] (For-VGA[dL]A[dL]V[dL]W[dV]W[dV]W[dV]W-NHCH2CH2OH) are 1.02, 5.2% and “-”.
On the same counts, the results for `CNC(=O)C[C@@H](NC(=O)[C@@H](NC(=O)[C@@H](CC(C)C)NC(=O)[C@H](C)NC(=O)[C@H](NC(=O)[C@H](C)NC(=O)CNC(=O)[C@@H](NC=O)C(C)C)C(C)C)C(C)C)C(=O)N[C@@H](Cc1c[nH]c2ccccc12)C(=O)N[C@H](CC(C)C)C(=O)N[C@@H](Cc1c[nH]c2ccccc12)C(=O)N[C@@H](C(=O)N[C@@H](Cc1c[nH]c2ccccc12)C(=O)N[C@@H](C(=O)N[C@@H](Cc1c[nH]c2ccccc12)C(=O)NCCO)C(C)C)C(C)C` [compound 11349] (For-VGA[dV]A[dL]V[dD](NHMe)W[dL]W[dV]W[dV]W-NHCH2CH2OH) are 1.00, 34.3% and “-”.
Regarding `CNC(=O)C[C@@H](NC(=O)[C@H](Cc1c[nH]c2ccccc12)NC(=O)[C@@H](CC(C)C)NC(=O)[C@H](Cc1c[nH]c2ccccc12)NC(=O)[C@H](NC(=O)[C@H](Cc1c[nH]c2ccccc12)NC(=O)[C@@H](CC(C)C)NC(=O)[C@@H](NC(=O)[C@H](NC(=O)[C@H](C)NC(=O)[C@H](NC(=O)[C@H](C)NC(=O)CNC(=O)[C@@H](NC=O)C(C)C)C(C)C)C(C)C)C(C)C)C(C)C)C(=O)N[C@@H](Cc1c[nH]c2ccccc12)C(=O)NCCO` [compound 11368] (For-VGA[dV]A[dV]V[dL]W[dV]W[dL]W[dD](NHMe)W-NHCH2CH2OH), the “H+/Na+ transport activity normalized” value in series [1] is 1.01. This compound also gave a cell viability/% in series [2] of 61.1%. The antibacterial activity result in series [3] is on record as “-”.
For `CC(C)C[C@@H](NC(=O)[C@H](C)NC(=O)[C@H](NC(=O)[C@H](C)NC(=O)CNC(=O)[C@@H](NC=O)C(C)C)C(C)C)C(=O)N[C@H](C(=O)N[C@@H](C(=O)N[C@@H](Cc1c[nH]c2ccccc12)C(=O)N[C@H](CC(C)C)C(=O)N[C@@H](Cc1c[nH]c2ccccc12)C(=O)N[C@@H](C(=O)N[C@@H](Cc1c[nH]c2ccccc12)C(=O)N[C@H](CC(C)C)C(=O)N[C@@H](Cc1c[nH]c2ccccc12)C(=O)NCCO)[C@H](C)O)C(C)C)C(C)C` [compound 11374] (For-VGA[dV]A[dL]V[dV]W[dL]W[dT]W[dL]W-NHCH2CH2OH), in series [1], the “H+/Na+ transport activity normalized” value came out at 1.07. Besides, the cell viability/% in series [2] stood at 45.1%. The antibacterial activity result in series [3] is reported as “+”.
On the same counts, the results for `CNC(=O)C[C@@H](NC(=O)[C@@H](NC(=O)[C@@H](CC(C)C)NC(=O)[C@H](C)NC(=O)[C@H](NC(=O)[C@H](C)NC(=O)CNC(=O)[C@@H](NC=O)C(C)C)C(C)C)C(C)C)C(=O)N[C@@H](Cc1c[nH]c2ccccc12)C(=O)N[C@@H](C(=O)N[C@@H](Cc1c[nH]c2ccccc12)C(=O)N[C@@H](C(=O)N[C@@H](Cc1c[nH]c2ccccc12)C(=O)N[C@@H](C(=O)N[C@@H](Cc1c[nH]c2ccccc12)C(=O)NCCO)C(C)C)C(C)C)C(C)C` [compound 11383] (For-VGA[dV]A[dL]V[dD](NHMe)W[dV]W[dV]W[dV]W-NHCH2CH2OH) are 1.09, 55.3% and “-”.
